The text below walks through data of ChEMBL document CHEMBL1212731, “Nonclonal emergence of colistin-resistant Klebsiella pneumoniae isolates from blood samples in South Korea” (2010).

Common to all, as to type: functional
Experiment [1] has as its system Klebsiella pneumoniae. Nature of the experiment: Antimicrobial activity against colistin-resistant Klebsiella pneumoniae isolated from bacteremia patient by broth microdilution method. A general note: In broth dilution the organism is exposed to a series of concentrations in liquid medium.
Experiment [2] has as its system Klebsiella pneumoniae. Nature of the experiment: Antimicrobial activity against Klebsiella pneumoniae isolated from bacteremia patient assessed as percentage of resistant isolates by broth microdilution method.
Experiment [3] deals with Klebsiella pneumoniae. Nature of the experiment: Antimicrobial activity against colistin-susceptible Klebsiella pneumoniae isolated from bacteremia patient assessed as percentage of resistant isolates by broth microdilution method.
Experiment [4] has as its system Klebsiella pneumoniae. Nature of the experiment: Antimicrobial activity against colistin-resistant Klebsiella pneumoniae isolated from bacteremia patient assessed as percentage of resistant isolates by broth microdilution method.

Converted amounts (≈) assume the structure as drawn.

On to `CC1(C)S[C@@H]2[C@H](NC(=O)[C@H](N)c3ccccc3)C(=O)N2[C@H]1C(=O)O` [AMPICILLIN], for which the MIC50 – broadly, an inhibitory concentration at the 50% level, which refers to growth in some studies and to a panel of isolates in others – with Klebsiella pneumoniae [1] amounted to 64 µg/mL (≈ 183 µM). For the same molecule, the MIC90 – broadly, the lowest concentration that inhibits either 90% of growth or 90% of the strains tested, depending on the study – against Klebsiella pneumoniae [1] is over 64 µg/mL. Also, the values for the Activity in the experiment on Klebsiella pneumoniae [2], in the experiment on Klebsiella pneumoniae [3] and with Klebsiella pneumoniae [4] were 91.4%, 92.2% and 80%, respectively.
With `C[C@H]1[C@H](NC(=O)/C(=N\OC(C)(C)C(=O)O)c2csc(N)n2)C(=O)N1S(=O)(=O)O` [AZTREONAM], the MIC50 against Klebsiella pneumoniae [1] is at most 0.06 µg/mL. In the experiment on Klebsiella pneumoniae [1], this molecule gave an MIC90 of over 64 µg/mL. In addition, the Activity is reported as 16.7% with Klebsiella pneumoniae [2], 17.5% with Klebsiella pneumoniae [3] and 6.7% in the experiment with Klebsiella pneumoniae [4].
In the case of COLISTIN, the MIC50 against Klebsiella pneumoniae [1] was found to be 1 µg/mL. The molecule also had an MIC90 in the experiment on Klebsiella pneumoniae [1] of 4 µg/mL. Besides, the results for the Activity in the experiment with Klebsiella pneumoniae [2] and with Klebsiella pneumoniae [4] were 6.8% and 100%, respectively.
In turn, `O=C(O)c1cn(C2CC2)c2cc(N3CCNCC3)c(F)cc2c1=O` [CIPROFLOXACIN] showed an MIC50 against Klebsiella pneumoniae [1] of at most 0.06 µg/mL. This molecule showed an MIC90 in the experiment with Klebsiella pneumoniae [1] of 64 µg/mL (≈ 193 µM). Further, the values for the Activity in the experiment with Klebsiella pneumoniae [2], in the experiment with Klebsiella pneumoniae [3] and in the experiment with Klebsiella pneumoniae [4] were 17.7%, 17.5% and 20%, respectively.
On the same counts, the results for `CC(C)(O/N=C(\C(=O)N[C@@H]1C(=O)N2C(C(=O)[O-])=C(C[n+]3ccccc3)CS[C@H]12)c1csc(N)n1)C(=O)O` [CEFTAZIDIME] are 0.25 µg/mL (≈ 0.457 µM), over 64 µg/mL, 17.7%, 18.5% and 6.7%.
`CO/N=C(\C(=O)N[C@@H]1C(=O)N2C(C(=O)O)=C(COC(C)=O)CS[C@H]12)c1csc(N)n1` [CEFOTAXIME] came in with an MIC50 in the experiment with Klebsiella pneumoniae [1] of at most 0.12 µg/mL. This molecule gave an MIC90 against Klebsiella pneumoniae [1] of 128 µg/mL (≈ 281 µM). Moreover, the Activity in the experiment with Klebsiella pneumoniae [2] is 14.5%; in the experiment on Klebsiella pneumoniae [3], 15.1%; with Klebsiella pneumoniae [4] it was 6.7%.
`C[C@@H](O)[C@H]1C(=O)N2C(C(=O)O)=C(SCCNC=N)C[C@H]12` [IMIPENEM ANHYDROUS] had an MIC50 with Klebsiella pneumoniae [1] of 0.25 µg/mL (≈ 0.835 µM). This molecule displayed an MIC90 against Klebsiella pneumoniae [1] of 1 µg/mL (≈ 3.34 µM). For the same molecule, the Activity in the experiment on Klebsiella pneumoniae [2] and with Klebsiella pneumoniae [3] was 0.5% in each case.
Turning to GENTAMICIN, in the experiment on Klebsiella pneumoniae [1], the MIC50 was determined as 0.5 µg/mL. Besides, in the experiment with Klebsiella pneumoniae [1], the MIC90 was over 64 µg/mL. Further, the Activity in the experiment on Klebsiella pneumoniae [2] came out at 16.3%; with Klebsiella pneumoniae [3], 17%; with Klebsiella pneumoniae [4], 6.7%.
